The conditions of data set [1]: cited from earlier work.
Data set [2] is described as follows: Mayr nucleophilicity parameters N and sN (benzhydrylium methodology, Mayr-Patz equation). The data set is classed as physicochemical. The conditions noted are these: dichloromethane, 20 °C. An excerpt:
(1) Mayr-Patz Equation: lgk20^∘C=sN(N+E)
The MPE is a linear‐free‐energy relationship that characterizes electrophiles by the electrophilicity parameter E and nucleophiles by the solvent‐dependent parameters N (nucleophilicity) and s N (sensitivity toward changes in the electrophile reactivity). By using the MPE (Equation (1)), the construction of comprehensive nucleophilicity and electrophilicity scales becomes possible, which facilitate the comparison of various classes of Lewis base organocatalysts.^[ [110], [111], [112], [113], [114], [115], [116], [117], [118], [119], [120] ^]
In order to systematically investigate the influence of the chalcogen atom on the nucleophilicity of DHPB‐derived IChUs (Ch = O, S, Se, and Te), we utilized Mayr's benzhydrylium methodology.^[ [107] ^]
Figure 4 illustrates the linear correlations of the second‐order rate constants (lg k 2) with the electrophilicities E of Ar2CH^+ (18), which makes it possible to determine the Mayr nucleophilicity parameters N (and s N) for the DHPB‐derived IChUs IU3, ITU3, ISeU3, and ITeU3. […]
Figure 4 Linear correlations of second‐order rate constants (lg k 2) for the reactions of IU3, ITU3, ISeU3, and ITeU3 with Ar2CH^+ 18 (in dichloromethane at 20 °C) with the electrophilicities E of 18. The slopes of the linear correlations equal the nucleophile‐dependent sensitivity parameter s N. Intercepts on the abscissa reflect the nucleophilicity parameter N (N = –E at lg k 2 = 0).

Data set [3] can be described thus: Lewis basicity LB from equilibrium constants (photometric titrations) with benzhydrylium ions as reference Lewis acids. It is filed as physicochemical. More on the design: key: Mayr Lewis basicity scale; LB from K and reference LA via Eq. (3). The conditions noted are these: in dichloromethane, 20 °C. The protocol:
(a) Lewis basicity. Previously, the Mayr group established a series of benzhydrylium ions as C‐centered Lewis acid references to construct a Lewis basicity scale in dichloromethane. Substituting experimentally determined equilibrium constants K (at 20 °C) and reported Lewis acidities LA for the benzhydrylium ions (Figure 7) in Equation (3) enables one to calculate the Lewis basicity (LB) of a Lewis base.^[ [121], [127] ^] (3) lgK(20^∘C)=LA+LB
The reversibility of the formation of adducts 19 (Equation (4)), which was also apparent in the kinetics by significant positive intercepts in several of the k obs versus [IChU] plots (Supporting Information), provided the opportunity to probe the thermodynamics of the C‐N bond‐forming reactions of IChUs with benzhydrylium ions as the reference Lewis acids in more detail.^[ [95] ^] (4) IChU+Ar2CH^+(18)⇌Ar2CH-IChU^+(19)
By assuming the validity of the Beer–Lambert law for dilute solutions, equilibrium constants K (L mol^−1) were determined in photometric titrations according to Equation (5) from the initial absorbance (A 0) of the benzhydrylium ions 18 and the absorbance at equilibrium (A, Equation 5), that is, after addition of a certain amount of an IChU.^[ [109], [110], [111], [112], [113], [114], [115], [119] ^] (5) K=[19]/[18]IChU=A0−A/AIChU

The nature of data set [4]: Mayr nucleophilicity parameters N and sN (benzhydrylium methodology, Mayr-Patz equation). The conditions noted are these: 20 °C. It is filed as physicochemical.
For data set [5] the following is noted: dichloromethane, 20 °C; cited from earlier work.
The mark [6] stands for this setting: in acetonitrile, ref SI [25]-[30].

“And” between values parts separate entries of the source, which are not always exact repeats. Equal entries are not always repeated. Where two headings read alike, the source gives them in different places.

For `O=C(O)c1ccc([N+](=O)[O-])cc1[N+](=O)[O-]` [2,4-Dinitrobenzoic acid], the “Literature pKa of indicators and acids” value in data set [1] (in DMSO, ref SI [31]-[36]) was 6.5.

For the compound `CN(C)c1ccncc1` [4-(dimethylamino)pyridine], the “Literature pKa of indicators and acids” value in data set [1] (in DMSO, ref SI [31]-[36]) is given as 7.91; in data set [1] (setting [6]), 17.95.

As for `Fc1ccc2c(c1)SC1=N[C@H](c3ccccc3)CN12` [F-ITU2, 7-F-BTM], in data set [2], the “Nucleophile-specific sensitivity parameter sN” value is 0.66; the “Nucleophilicity parameter N” value is 13.45 and 13.46. Also, the “Lewis basicity LB” value in data set [3] was determined as 14.18.

Take `c1ccc(C2CN3CC[Se]C3=N2)cc1` (centres unmarked) [ISeU1, SeTM]: in data set [2], the “Nucleophile-specific sensitivity parameter sN” value came to 0.60 and the “Nucleophilicity parameter N” value is recorded as 15.26.

On to `c1ccc([C@@H]2CN3C(=N2)[Se]c2ccccc23)cc1` [ISeU2, SeBTM], for which, in data set [2], the “Nucleophile-specific sensitivity parameter sN” value was determined as 0.63 and the “Nucleophilicity parameter N” value amounted to 14.27. In data set [3], the “Lewis basicity LB” value is reported as 15.23.

With `c1ccc([C@@H]2CCN3C(=N2)[Se]c2ccccc23)cc1` [ISeU4, SeHBTM], in data set [2], the “Nucleophile-specific sensitivity parameter sN” value came out at 0.67 and the “Nucleophilicity parameter N” value was 14.42. Further, the “Lewis basicity LB” value in data set [3] is reported as 14.03.

As to `CC(C)[C@@H]1CN2C(=N[C@@H]1c1ccccc1)[Se]c1ccccc12` [ISeU5, SeHyperBTM], the “Nucleophile-specific sensitivity parameter sN” value turned out to be 0.58 in data set [2], 0.77 in data set [4] (THF) and 0.57 in data set [4] (acetonitrile). Moreover, the “Nucleophilicity parameter N” value in data set [2] turned out to be 16.11; in data set [4] (THF) it was 14.19; in data set [4] (acetonitrile), 15.84. Moreover, in data set [3], the “Lewis basicity LB” value stood at 14.75.

Regarding `c1ccc(C2CN3CCSC3=N2)cc1` (centres unmarked) [ITU1, tetramisole, reference compound], in data set [2], the “Nucleophile-specific sensitivity parameter sN” value was 0.68 and the “Nucleophilicity parameter N” value is recorded as 13.86. The “Lewis basicity LB” value in data set [3] was 15.50.

With `c1ccc([C@@H]2CN3C(=N2)Sc2ccccc23)cc1` [ITU2, benzotetramisole], in data set [2], the “Nucleophile-specific sensitivity parameter sN” value came out at 0.73 and the “Nucleophilicity parameter N” value was 13.06. The “Lewis basicity LB” value in data set [3] was 14.88.

Turning to `c1ccc([C@@H]2CCN3C(=N2)Sc2ccccc23)cc1` [ITU4, HBTM], the “Nucleophilicity parameter N” value in data set [5] is recorded as 13.45. Besides, in data set [3], the “Lewis basicity LB” value came to 13.43.

Take `CC(C)[C@@H]1CN2C(=N[C@@H]1c1ccccc1)Sc1ccccc12` [ITU5, HyperBTM]: the “Nucleophilicity parameter N” value in data set [5] was 14.96. In addition, the “Lewis basicity LB” value in data set [3] turned out to be 14.12.

For the compound `c1ccc([C@@H]2CN3C(=N2)[Te]c2ccccc23)cc1` [ITeU2, TeBTM], in data set [2], the “Nucleophile-specific sensitivity parameter sN” value worked out at 0.66 and the “Nucleophilicity parameter N” value amounted to 14.62. The “Lewis basicity LB” value in data set [3] was 17.09.

In the case of `CC(C)[C@@H]1CN2C(=N[C@@H]1c1ccccc1)Oc1ccccc12` [IU5, OHyperBTM], in data set [2], the “Nucleophile-specific sensitivity parameter sN” value came out at 0.73 and the “Nucleophilicity parameter N” value was found to be 13.01. The “Lewis basicity LB” value in data set [3] amounted to 12.42.

Consider `COc1ccc2c(c1)SC1=N[C@H](c3ccccc3)CN12` [MeO-ITU2, 7-MeO-BTM], for which, in data set [2], the “Nucleophile-specific sensitivity parameter sN” value is listed as 0.75 and the “Nucleophilicity parameter N” value was found to be 13.15. In addition, the “Lewis basicity LB” value in data set [3] worked out at 15.22.

Consider `CC1(C)OC(=O)CC(=O)O1` [Meldrum’s acid], for which the “Literature pKa of indicators and acids” value in data set [1] (in DMSO, ref SI [31]-[36]) was 7.3.

As for `CN(C)c1cccc2cccc(N(C)C)c12` [Proton Sponge], the “Literature pKa of indicators and acids” value in data set [1] (in DMSO, ref SI [31]-[36]) is 7.47.

Take `C1CCNC1` [Pyrrolidine]: the “Literature pKa of indicators and acids” value in data set [1] (in DMSO, ref SI [31]-[36]) is 11.06; in data set [1] (setting [6]) it was 19.56.
